Key:
[1] = target: Glutathione S-transferase A3 (Homo sapiens, UniProt Q16772); assay: Substrates for human cytosolic glutathione transferase GSTA3; format: ADME
[2] = target: T1, Glutathione S-transferase A1 (Homo sapiens, UniProt P08263); assay: Substrates for human cytosolic glutathione transferase GSTA1; format: ADME
T1 sequence (P08263 whole entry): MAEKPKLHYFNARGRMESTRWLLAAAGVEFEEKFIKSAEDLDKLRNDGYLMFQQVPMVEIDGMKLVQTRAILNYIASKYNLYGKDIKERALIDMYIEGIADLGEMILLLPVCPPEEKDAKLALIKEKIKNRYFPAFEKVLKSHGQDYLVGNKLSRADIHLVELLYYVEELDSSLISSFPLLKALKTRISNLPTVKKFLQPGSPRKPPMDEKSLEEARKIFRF

[3] = target: Microsomal glutathione S-transferase 2 (Homo sapiens, UniProt Q99735); assay: Substrates for human microsomal glutathione transferase MGST2; format: ADME
[4] = target: T2, Glutathione S-transferase A2 (Homo sapiens, UniProt P09210); assay: Substrates for human cytosolic glutathione transferase GSTA2; format: ADME
T2 sequence (P09210 whole entry): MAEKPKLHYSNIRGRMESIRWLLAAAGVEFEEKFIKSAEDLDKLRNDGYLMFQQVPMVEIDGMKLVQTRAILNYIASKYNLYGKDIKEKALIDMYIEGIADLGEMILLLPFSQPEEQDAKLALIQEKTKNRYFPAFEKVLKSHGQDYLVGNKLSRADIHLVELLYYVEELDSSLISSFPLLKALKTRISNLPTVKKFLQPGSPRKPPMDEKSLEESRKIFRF

Cytochrome P450 2E1 = Cytochrome P450 2E1 (Homo sapiens, UniProt P05181); assay: Clinically relevant substrates of human liver microsomal P450 enzymes, isoform CYP2E1; format: ADME; details: microsomes
Sulfotransferase 1A1 = Sulfotransferase 1A1 (Homo sapiens, UniProt P50225); assay: Major substrate of human cytosolic sulfotransferase SULT1A1; format: ADME
Sulfotransferase 1A2 = Sulfotransferase 1A2 (Homo sapiens, UniProt P50226); assay: Major substrate of human cytosolic sulfotransferase SULT1A2; format: ADME
Sulfotransferase 4A1 = target: T3, Sulfotransferase 4A1 (Homo sapiens, UniProt Q9BR01); assay: Major substrate of human cytosolic sulfotransferase SULT4A1_v1; format: ADME
T3 sequence (Q9BR01 whole entry): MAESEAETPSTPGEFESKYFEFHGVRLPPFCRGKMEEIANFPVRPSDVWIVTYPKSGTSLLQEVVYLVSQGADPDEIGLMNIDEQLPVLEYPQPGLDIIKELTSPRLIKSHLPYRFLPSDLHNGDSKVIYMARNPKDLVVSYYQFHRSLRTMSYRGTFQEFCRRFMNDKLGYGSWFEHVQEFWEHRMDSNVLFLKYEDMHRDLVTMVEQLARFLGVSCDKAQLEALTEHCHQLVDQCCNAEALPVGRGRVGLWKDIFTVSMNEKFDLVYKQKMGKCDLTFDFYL

[5] = target: Glutathione S-transferase Mu 3 (Homo sapiens, UniProt P21266); assay: Substrates for human cytosolic glutathione transferase GSTM3; format: ADME
[6] = target: T4, Glutathione S-transferase theta-1 (Homo sapiens, UniProt P30711); assay: Substrates for human cytosolic glutathione transferase GSTT1; format: ADME
T4 sequence (P30711 whole entry): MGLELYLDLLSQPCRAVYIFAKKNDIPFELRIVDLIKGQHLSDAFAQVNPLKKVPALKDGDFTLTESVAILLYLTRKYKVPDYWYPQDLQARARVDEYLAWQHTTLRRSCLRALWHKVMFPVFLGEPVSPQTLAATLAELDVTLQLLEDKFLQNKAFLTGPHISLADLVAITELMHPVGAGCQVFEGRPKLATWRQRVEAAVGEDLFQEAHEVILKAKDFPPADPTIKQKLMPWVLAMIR

[7] = target: T5, Nuclear receptor subfamily 1 group I member 3 (Homo sapiens, UniProt Q14994); assay: Constitutive androstane receptor inverse agonist
T5 sequence (Q14994 whole entry): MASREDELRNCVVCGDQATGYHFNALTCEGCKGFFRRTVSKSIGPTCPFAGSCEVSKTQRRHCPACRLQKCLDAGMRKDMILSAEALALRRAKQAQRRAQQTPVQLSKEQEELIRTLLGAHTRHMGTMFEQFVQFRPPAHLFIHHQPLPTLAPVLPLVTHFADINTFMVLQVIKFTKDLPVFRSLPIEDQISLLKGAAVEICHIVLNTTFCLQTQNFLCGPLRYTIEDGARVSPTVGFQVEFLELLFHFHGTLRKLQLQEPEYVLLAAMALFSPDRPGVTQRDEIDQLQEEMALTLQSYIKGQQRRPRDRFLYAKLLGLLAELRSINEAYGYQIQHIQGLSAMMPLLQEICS

[8] = target: T6, Nuclear receptor subfamily 1 group I member 3 (Mus musculus, UniProt O35627); assay: Constitutive androstane receptor agonist
T6 sequence (O35627 whole entry): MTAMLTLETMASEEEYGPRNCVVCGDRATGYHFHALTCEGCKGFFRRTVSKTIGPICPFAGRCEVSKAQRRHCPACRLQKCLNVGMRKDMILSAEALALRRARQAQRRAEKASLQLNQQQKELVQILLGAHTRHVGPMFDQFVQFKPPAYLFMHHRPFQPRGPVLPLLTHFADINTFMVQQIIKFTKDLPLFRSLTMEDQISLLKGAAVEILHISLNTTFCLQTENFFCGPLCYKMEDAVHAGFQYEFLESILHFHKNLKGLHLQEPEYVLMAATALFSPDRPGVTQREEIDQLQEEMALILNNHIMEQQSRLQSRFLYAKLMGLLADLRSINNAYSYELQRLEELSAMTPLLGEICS

[9] = target: T7, Microsomal glutathione S-transferase 1 (Homo sapiens, UniProt P10620); assay: Substrates for human microsomal glutathione transferase MGST1; format: ADME
T7 sequence (P10620 whole entry): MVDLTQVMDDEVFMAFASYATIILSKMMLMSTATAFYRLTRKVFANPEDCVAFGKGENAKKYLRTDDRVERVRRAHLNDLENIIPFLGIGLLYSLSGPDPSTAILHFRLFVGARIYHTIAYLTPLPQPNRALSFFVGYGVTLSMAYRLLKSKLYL

[10] = target: T8, Glutathione S-transferase kappa 1 (Homo sapiens, UniProt Q9Y2Q3); assay: Substrates for human mitochondrial glutathione transferase GSTK1; format: ADME
T8 sequence (Q9Y2Q3 whole entry): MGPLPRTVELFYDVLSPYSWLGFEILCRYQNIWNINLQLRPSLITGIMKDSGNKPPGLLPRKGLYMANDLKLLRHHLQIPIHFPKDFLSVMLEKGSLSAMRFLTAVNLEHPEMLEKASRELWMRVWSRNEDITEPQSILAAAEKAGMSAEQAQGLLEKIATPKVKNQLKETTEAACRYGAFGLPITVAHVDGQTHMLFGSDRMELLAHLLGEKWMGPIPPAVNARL

[11] = target: Glutathione S-transferase theta-2 (Homo sapiens, UniProt P0CG29); assay: Substrates for human cytosolic glutathione transferase GSTT2; format: ADME
[12] = target: T6, Nuclear receptor subfamily 1 group I member 3; assay: (§1) Constitutive androstane receptor indirect activator; format: ADME
[13] = target: T5, Nuclear receptor subfamily 1 group I member 3; assay: as §1; format: ADME
Cytochrome P450 2B6 = target: T9, Cytochrome P450 2B6 (Homo sapiens, UniProt P20813); assay: Clinically relevant inducers of human liver microsomal P450 enzymes, isoform CYP2B6; format: ADME; details: microsomes
T9 sequence (P20813 whole entry): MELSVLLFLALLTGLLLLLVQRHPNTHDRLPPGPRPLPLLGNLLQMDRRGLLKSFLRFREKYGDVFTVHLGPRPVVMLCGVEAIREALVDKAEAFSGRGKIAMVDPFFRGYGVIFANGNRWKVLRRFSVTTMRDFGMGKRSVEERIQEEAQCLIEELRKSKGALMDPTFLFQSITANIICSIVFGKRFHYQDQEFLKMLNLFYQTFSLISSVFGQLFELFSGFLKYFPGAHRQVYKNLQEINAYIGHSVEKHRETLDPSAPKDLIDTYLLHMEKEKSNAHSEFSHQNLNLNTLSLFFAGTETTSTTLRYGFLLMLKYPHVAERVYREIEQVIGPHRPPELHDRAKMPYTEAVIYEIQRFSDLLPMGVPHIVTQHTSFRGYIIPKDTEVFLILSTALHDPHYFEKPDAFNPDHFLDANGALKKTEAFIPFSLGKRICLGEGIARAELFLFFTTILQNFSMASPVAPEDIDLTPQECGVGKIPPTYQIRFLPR

Cytochrome P450 2C9 = Cytochrome P450 2C9 (Homo sapiens, UniProt P11712); assay: Clinically relevant substrates of human liver microsomal P450 enzymes, isoform CYP2C9; format: ADME; details: microsomes
Cytochrome P450 2A6 = target: T10, Cytochrome P450 2A6 (Homo sapiens, UniProt P11509); assay: Clinically relevant inhibitors of human liver microsomal P450 enzymes, isoform CYP2A6; format: ADME; details: microsomes
T10 sequence (P11509 whole entry): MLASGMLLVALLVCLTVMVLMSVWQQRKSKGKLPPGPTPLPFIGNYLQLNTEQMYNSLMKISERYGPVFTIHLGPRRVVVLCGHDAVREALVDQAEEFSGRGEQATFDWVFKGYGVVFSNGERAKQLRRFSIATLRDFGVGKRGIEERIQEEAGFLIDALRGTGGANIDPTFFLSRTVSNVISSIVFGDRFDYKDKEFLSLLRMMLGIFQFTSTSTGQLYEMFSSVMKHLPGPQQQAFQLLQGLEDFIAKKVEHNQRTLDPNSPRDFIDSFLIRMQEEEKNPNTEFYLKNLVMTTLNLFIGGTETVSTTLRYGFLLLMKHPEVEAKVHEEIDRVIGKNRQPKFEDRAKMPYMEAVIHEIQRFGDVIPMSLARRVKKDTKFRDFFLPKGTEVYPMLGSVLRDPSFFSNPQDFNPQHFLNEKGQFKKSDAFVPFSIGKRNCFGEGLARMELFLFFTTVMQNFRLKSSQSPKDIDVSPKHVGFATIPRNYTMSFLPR

Sequence of Cytochrome P450 2E1 (P05181 whole entry, canonical isoform): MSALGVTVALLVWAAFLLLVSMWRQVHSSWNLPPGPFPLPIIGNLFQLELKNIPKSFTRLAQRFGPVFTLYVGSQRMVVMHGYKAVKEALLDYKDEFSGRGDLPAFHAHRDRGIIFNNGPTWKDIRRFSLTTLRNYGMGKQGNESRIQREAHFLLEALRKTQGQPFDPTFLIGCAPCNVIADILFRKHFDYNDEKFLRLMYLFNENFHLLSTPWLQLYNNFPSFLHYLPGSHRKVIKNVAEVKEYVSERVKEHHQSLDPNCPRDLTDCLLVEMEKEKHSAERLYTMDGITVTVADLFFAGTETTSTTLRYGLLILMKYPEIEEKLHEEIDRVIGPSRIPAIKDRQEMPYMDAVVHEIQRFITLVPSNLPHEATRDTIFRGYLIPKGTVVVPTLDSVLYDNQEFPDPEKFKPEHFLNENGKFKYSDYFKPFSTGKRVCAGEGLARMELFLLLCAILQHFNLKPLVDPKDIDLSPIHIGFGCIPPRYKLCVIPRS
Sequence of Glutathione S-transferase A3 (Q16772 whole entry): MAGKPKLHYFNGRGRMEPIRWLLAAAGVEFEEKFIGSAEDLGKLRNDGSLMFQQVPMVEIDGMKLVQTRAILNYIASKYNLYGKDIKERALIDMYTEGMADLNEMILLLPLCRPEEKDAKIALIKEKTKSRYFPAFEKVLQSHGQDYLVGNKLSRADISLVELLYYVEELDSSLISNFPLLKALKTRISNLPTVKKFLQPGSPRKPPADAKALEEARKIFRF
Sequence of Glutathione S-transferase theta-2 (P0CG29 whole entry): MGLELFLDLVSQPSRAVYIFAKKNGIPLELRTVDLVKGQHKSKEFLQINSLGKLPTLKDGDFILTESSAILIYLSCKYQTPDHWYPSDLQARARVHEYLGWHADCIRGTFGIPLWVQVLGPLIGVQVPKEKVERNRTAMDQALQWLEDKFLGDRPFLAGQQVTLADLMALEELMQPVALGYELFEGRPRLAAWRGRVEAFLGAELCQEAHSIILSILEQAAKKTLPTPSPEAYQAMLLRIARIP
Sequence of Sulfotransferase 1A1 (P50225 whole entry): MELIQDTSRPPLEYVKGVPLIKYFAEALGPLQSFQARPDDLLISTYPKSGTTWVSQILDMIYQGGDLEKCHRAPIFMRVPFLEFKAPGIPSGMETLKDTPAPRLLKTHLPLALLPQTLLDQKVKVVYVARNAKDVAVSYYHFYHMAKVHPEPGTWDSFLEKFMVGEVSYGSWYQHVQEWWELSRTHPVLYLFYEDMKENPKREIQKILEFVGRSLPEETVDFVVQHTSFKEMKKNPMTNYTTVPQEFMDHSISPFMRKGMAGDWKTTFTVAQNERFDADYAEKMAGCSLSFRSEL
Sequence of Microsomal glutathione S-transferase 2 (Q99735 whole entry): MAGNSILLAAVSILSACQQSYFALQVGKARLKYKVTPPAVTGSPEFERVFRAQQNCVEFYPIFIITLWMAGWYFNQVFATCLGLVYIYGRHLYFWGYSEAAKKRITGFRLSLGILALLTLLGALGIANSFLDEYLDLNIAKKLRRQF
Sequence of Sulfotransferase 1A2 (P50226 whole entry): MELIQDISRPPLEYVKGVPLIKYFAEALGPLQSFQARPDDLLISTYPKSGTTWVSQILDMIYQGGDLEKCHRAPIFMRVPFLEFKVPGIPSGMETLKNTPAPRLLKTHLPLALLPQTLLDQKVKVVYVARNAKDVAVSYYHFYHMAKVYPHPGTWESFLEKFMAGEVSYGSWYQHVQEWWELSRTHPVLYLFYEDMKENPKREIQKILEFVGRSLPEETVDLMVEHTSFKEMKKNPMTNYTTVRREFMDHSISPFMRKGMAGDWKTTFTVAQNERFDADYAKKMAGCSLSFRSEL
Sequence of Glutathione S-transferase Mu 3 (P21266 whole entry): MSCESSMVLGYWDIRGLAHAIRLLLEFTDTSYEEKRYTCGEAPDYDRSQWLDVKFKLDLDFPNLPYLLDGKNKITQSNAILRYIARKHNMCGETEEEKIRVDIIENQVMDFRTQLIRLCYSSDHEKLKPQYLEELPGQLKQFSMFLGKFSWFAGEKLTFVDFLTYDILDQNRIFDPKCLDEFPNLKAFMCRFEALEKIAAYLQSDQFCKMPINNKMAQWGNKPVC
Sequence of Cytochrome P450 2C9 (P11712 whole entry, canonical isoform): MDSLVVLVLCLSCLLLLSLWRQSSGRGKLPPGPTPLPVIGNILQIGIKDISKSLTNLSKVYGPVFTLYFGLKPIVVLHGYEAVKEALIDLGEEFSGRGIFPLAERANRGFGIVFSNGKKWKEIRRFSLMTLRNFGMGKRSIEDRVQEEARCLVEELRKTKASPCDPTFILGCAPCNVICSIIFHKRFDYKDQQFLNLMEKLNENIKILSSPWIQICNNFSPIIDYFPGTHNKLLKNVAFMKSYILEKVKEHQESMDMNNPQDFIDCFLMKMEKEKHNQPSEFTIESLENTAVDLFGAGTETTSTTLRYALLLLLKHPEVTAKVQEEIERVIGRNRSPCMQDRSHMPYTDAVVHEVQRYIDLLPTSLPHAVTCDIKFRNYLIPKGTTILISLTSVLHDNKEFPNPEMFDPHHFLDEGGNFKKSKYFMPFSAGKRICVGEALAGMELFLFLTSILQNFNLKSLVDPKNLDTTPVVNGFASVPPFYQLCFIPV

With C[C@]12CCC(=O)CC1=CC[C@@H]1[C@@H]2CC[C@]2(C)C(=O)CC[C@@H]12 the Activity [1] was “Substrate” and the Activity [2] was “Substrate”.

CCCCC/C=C\C/C=C\C/C=C\C=C\[C@H](CCCC(=O)O)OO was tested, and the Activity [3] was “Substrate”.

O=[N+]([O-])c1ccc(Cl)c2nonc12 was tested, and the Activity [4] was “Substrate”.

With Nc1ccccc1 [ANILINE] the Activity (Cytochrome P450 2E1) was “Substrate”.

For Oc1ccc2ccccc2c1 [BETANAPHTHOL], the Activity (Sulfotransferase 1A1) was “Substrate”, the Activity (Sulfotransferase 1A2) was “Substrate” and the Activity (Sulfotransferase 4A1) was “Substrate”.

With O=NN(CCCl)C(=O)NCCCl [CARMUSTINE] the Activity [5] was “Substrate” and the Activity [6] was “Substrate”.

With CN(C)CCCN1c2ccccc2Sc2ccc(Cl)cc21 [CHLORPROMAZINE] the Activity [7] was “inverse agonist” and the Activity [8] was “agonist”.

Clc1ccccc1C(c1ccccc1)(c1ccccc1)n1ccnc1 [CLOTRIMAZOLE] was tested, and the Activity [8] was “agonist”.

With CC(C)(OO)c1ccccc1 [CUMENE HYDROPEROXIDE] the Activity [4] was “Substrate”, the Activity [9] was “Substrate” and the Activity [10] was “Substrate”. The Activity [11] was “Substrate”.

For OC1c2c(cc3ccc4cccc5c6ccccc6c2c3c45)C2OC2C1O (configuration not stated) [DIBENZO[A,L]PYRENE DIOL EPOXIDE], the Activity [4] was “Substrate”, the Activity [1] was “Substrate” and the Activity [2] was “Substrate”.

CCCCCCCCCCCC(=O)O [DODECANOATE] was tested, and the Activity (Cytochrome P450 2E1) was “Substrate”.

For ClC(Cl)=C(Cl)C(Cl)=C(Cl)Cl [HEXACHLOROBUTADIENE], the Activity [9] was “Substrate”.

With Cc1cccc(CN2CCN(C(c3ccccc3)c3ccc(Cl)cc3)CC2)c1 (configuration not stated) [MECLIZINE] the Activity [7] was “inverse agonist” and the Activity [8] was “agonist”.

With O=S(=O)(O)Cc1ccc2ccccc2c1 [MENAPHTHYL SULFONATE] the Activity [11] was “Substrate”.

For O=C1NC(=O)C(c2ccccc2)(c2ccccc2)N1 [PHENYTOIN], the Activity [12] was “indirect activator”, the Activity [13] was “indirect activator” and the Activity (Cytochrome P450 2B6) was “Inducer”. For the same compound, the Activity (Cytochrome P450 2C9) was “Substrate”.

With CC[C@@H]1C(=O)OC[C@@H]1Cc1cncn1C [PILOCARPINE] the Activity (Cytochrome P450 2A6) was “Inhibitor”.

In the case of N[C@@H]1C[C@H]1c1ccccc1.N[C@H]1C[C@@H]1c1ccccc1 [TRANYLCYPROMINE], the Activity (Cytochrome P450 2A6) is reported as “Inhibitor”.

NCCc1c[nH]c2ccccc12 [TRYPTAMINE] was tested, and the Activity (Cytochrome P450 2A6) was “Inhibitor”.

Source: ChEMBL document CHEMBL1743201, “Casarett and Doull's Toxicology The Basic Science of Poisons, 7th edition” (2008)
